# Where two headings read alike, the source gives them in different places.
# How the values were obtained:
# S. aureus = assay: MIC, broth micro-dilution (CLSI); type: cell-based, Staphylococcus aureus; settings: for MIC / MIC50 / MIC90: Staphylococcus aureus
# [1] = system: vancomycin-resistant enterococci (VRE); assay: MIC, broth micro-dilution (CLSI); type: cell-based, enterococci (porcine isolates)
# [2] = S2 Table isolates, absence of FBS
# [3] = Enterococcus, VRE, S3 Table isolates, 10% FBS
compound,measurement,setting,value
"Cl.N=C(NN=Cc1ccc(Cl)cc1)NN=Cc1ccc(Cl)cc1 [NCL812, 2,2'-bis[(4-chlorophenyl)methylene] carbonimidic dihydrazide hydrochloride]",Fold increase of MIC range in the presence of 10% FBS,S. aureus; 10% FBS versus no FBS,4-8 fold
same,MIC range,S. aureus; 23 isolates,2 to 8 µg/mL
same,MIC range,"S. aureus; S2 Table isolates, 10% FBS",32 µg/mL
same,MIC range,S. aureus; [2],2 to 8 µg/mL
same,MIC,"S. aureus; ATCC 12600 / MSSA, ATCC12600 [Xen29] (MSSA), 10% FBS",32 µg/mL
same,MIC,"S. aureus; ATCC 12600 / MSSA, ATCC12600 [Xen29] (MSSA), absence of FBS",4 µg/mL
same,MIC,"S. aureus; ATCC 29213 / MSSA, ATCC29213 MSSA (ST5), 10% FBS, read-out: MIC",32 µg/mL
same,MIC,"S. aureus; ATCC 29213 / MSSA, ATCC29213 MSSA (ST5), absence of FBS, read-out: MIC",4 µg/mL
same,MIC,"S. aureus; ATCC 49775 / MSSA, ATCC 49775 (MSSA), 10% FBS, read-out: MIC",32 µg/mL
same,MIC,"S. aureus; ATCC 49775 / MSSA, ATCC 49775 (MSSA), absence of FBS, read-out: MIC",2 µg/mL
same,MIC,"S. aureus; IRISH 1 – HA-EMRSA (ST8), 10% FBS, read-out: MIC",32 µg/mL
same,MIC,"S. aureus; IRISH 1 – HA-EMRSA (ST8), absence of FBS, read-out: MIC",2 µg/mL
same,MIC,"S. aureus; IRISH 2 – HA-EMRSA (ST8), 10% FBS, read-out: MIC",32 µg/mL
same,MIC,"S. aureus; IRISH 2 – HA-EMRSA (ST8), absence of FBS, read-out: MIC",2 µg/mL
same,MIC,"S. aureus; MRSA / USA300, USA 300 - MRSA (ST8), 10% FBS, read-out: MIC",32 µg/mL
same,MIC,"S. aureus; MRSA / USA300, USA 300 - MRSA (ST8), absence of FBS, read-out: MIC",2 µg/mL
same,MIC,"S. aureus; MRSA, AUS2-MRSA (ST239), 10% FBS, read-out: MIC",32 µg/mL
same,MIC,"S. aureus; MRSA, AUS2-MRSA (ST239), absence of FBS, read-out: MIC",2 µg/mL
same,MIC,"S. aureus; MRSA, AUS3-MRSA (ST239), 10% FBS, read-out: MIC",32 µg/mL
same,MIC,"S. aureus; MRSA, AUS3-MRSA (ST239), absence of FBS, read-out: MIC",2 µg/mL
same,MIC,"S. aureus; MRSA, BENGAL BAY PVL+ – CA-MRSA (ST772), 10% FBS, read-out: MIC",32 µg/mL
same,MIC,"S. aureus; MRSA, BENGAL BAY PVL+ – CA-MRSA (ST772), absence of FBS, read-out: MIC",2 µg/mL
same,MIC,"S. aureus; MRSA, Classic–HA-MRSA (ST250), 10% FBS, read-out: MIC",32 µg/mL
same,MIC,"S. aureus; MRSA, Classic–HA-MRSA (ST250), absence of FBS, read-out: MIC",2 µg/mL
same,MIC,"S. aureus; MRSA, NY JAPAN – HA MRSA (ST5), 10% FBS, read-out: MIC",32 µg/mL
same,MIC,"S. aureus; MRSA, NY JAPAN – HA MRSA (ST5), absence of FBS, read-out: MIC",2 µg/mL
same,MIC,"S. aureus; MRSA, QLD PVL+ –CA-MRSA (ST93), 10% FBS, read-out: MIC",32 µg/mL
same,MIC,"S. aureus; MRSA, QLD PVL+ –CA-MRSA (ST93), absence of FBS, read-out: MIC",2 µg/mL
same,MIC,"S. aureus; MRSA, ST398–CA-MRSA-V (ST398), 10% FBS, read-out: MIC",32 µg/mL
same,MIC,"S. aureus; MRSA, ST398–CA-MRSA-V (ST398), absence of FBS, read-out: MIC",2 µg/mL
same,MIC,"S. aureus; MRSA, WA2–CA-MRSA (ST78), absence of FBS",4 µg/mL
same,MIC,"S. aureus; MRSA, WA84–CA-MRSA (ST45), absence of FBS",4 µg/mL
same,MIC,"S. aureus; MRSA, WSPP – PVL neg CA MRSA (ST30), absence of FBS, read-out: MIC",2 µg/mL
same,MIC50,"S. aureus; S2 Table isolates, 10% FBS",32 µg/mL
same,MIC90,"S. aureus; S2 Table isolates, 10% FBS",32 µg/mL
same,MIC50,S. aureus; [2],2 µg/mL
same,MIC90,S. aureus; [2],4 µg/mL
same,MIC,"S. aureus; TAIWAN PVL+ – CA-cMRSA (ST59), 10% FBS, read-out: MIC",32 µg/mL
same,MIC,"S. aureus; TAIWAN PVL+ – CA-cMRSA (ST59), absence of FBS, read-out: MIC",2 µg/mL
same,MIC,"S. aureus; UK 15 PVL+ – HA-EMRSA (ST22), 10% FBS, read-out: MIC",32 µg/mL
same,MIC,"S. aureus; UK 15 PVL+ – HA-EMRSA (ST22), absence of FBS, read-out: MIC",4 µg/mL
same,MIC,"S. aureus; UK 15 – HA-EMRSA (ST22), 10% FBS, read-out: MIC",32 µg/mL
same,MIC,"S. aureus; UK 15 – HA-EMRSA (ST22), absence of FBS, read-out: MIC",4 µg/mL
same,MIC,"S. aureus; UK 16 – HA- EMRSA (ST36), 10% FBS, read-out: MIC",32 µg/mL
same,MIC,"S. aureus; UK 16 – HA- EMRSA (ST36), absence of FBS, read-out: MIC",4 µg/mL
same,MIC,"S. aureus; UK 17 – HA-EMRSA (ST247), 10% FBS, read-out: MIC",32 µg/mL
same,MIC,"S. aureus; UK 17 – HA-EMRSA (ST247), absence of FBS, read-out: MIC",2 µg/mL
same,Fold increase of MIC range in the presence of 10% FBS,[1]; 10% FBS versus no FBS,8-16 fold
same,MIC range,[1]; 20 isolates,2 to 4 µg/mL
same,MIC50,[1]; [3],32 µg/mL
same,MIC90,[1]; [3],32 µg/mL
same,MIC50,"[1]; Enterococcus, VRE, S3 Table isolates, absence of FBS",2 µg/mL
